Assay results reported in patent publication US20260083126A1, “ANTIMICROBIAL COMPOSITIONS” (AHV International B.V., priority 2022, published 2026).
Values after ≈ are worked out from the molar mass of the structure shown. Values joined by “and” are separate entries in the source; they are usually repeats but may differ in a detail not shown here. Equal entries are not always repeated. Where two headings read alike, the source gives them in different places.

Key:
[1] = system: Staphylococcus epidermidis ATCC 35984; test: MIC assay (growth inhibition of planktonic microorganisms); assay type: cell-based; conditions: 24 h at 37° C., MHB-II; for MIC50 / MIC90: Staphylococcus epidermidis, ATCC35984; for MIC50 / S. epidermidis MIC50: reduction of final OD600 by 50%; for MIC50: read-out: S. epidermidis MIC50; for MIC90 / S. epidermidis MIC90: reduction of final OD600 by 90%; for MIC90: read-out: S. epidermidis MIC90
Protocol: (§1) The exact weighed amount was noted and the volume of solvent to reach a 80 mM dilution calculated. Half of the volume was added first, by adding Tween 80 and let stand for 5 minutes. In a second step, the other half of the volume DMSO was added and resuspended to help the dilution process. The closed tube was inverted 5-10 times and then vortexed very thoroughly for at least 30 seconds. If after this procedure crystals were still visible, the tube was placed in a shaker at 37° C. at 150 rpm for at least 30 minutes (it is indicated if the dissolution period was longer than 2 h). […] In case of Bis(4-Chlorophenyl) thiosulfonate, a lower concentrated stock solution of 2 mM needed to be prepared. For that, the required amount of compound was weighed in and 2% v/v Tween80 and 2% v/v DMSO of the end volume of the stock solution was added to the substance. This mix was heated in a water bath set to 40° C. and occasionally shaken. When the whole amount of the substance reached dissolution, the volume was filled up with growth medium until the end volume. This 2 mM stock solution of Bis(4-Chlorophenyl) thiosulfonate was used in the MIC plate and diluted two-fold, resulting in a testing range of Bis(4-Chlorophenyl) thiosulfonate from 1 mM to 0.002 mM.
(§2) The microorganisms as indicated in Table 4 were used to inoculate a tryptic soy agar (TSA) plate and incubated overnight at 37° C. After incubation 3-5 well-isolated colonies with the same morphology were selected from the TSA plate and resuspended in 2 mL 0.9% saline solution with 3-6 glass beads and vortexed. The optical density at 600 nm (OD600) of the bacterial suspension was measured with a spectrophotometer (Evolution™ 201/220 UV-Visible Spectrophotometer, Thermo Fisher Scientific) and diluted to an OD600 of 0.0008, which resembles 10^6 CFU/mL.
(§3) The MIC assay was performed in a flat-bottom 96-microtiter plate. 50 μL of MHB-II was added into columns 2-11, and 100 μL to column 12 for sterility control. 100 μL of the 8 mM test compound solution (method 1) was added to column 1. A two-fold dilution series of the solution in MHB-II was achieved by resuspending 50 μL of the 8 mM solution from column 1 to column 2. This step was repeated until column 10. The respective concentration of Tween 80 and DMSO in column 1 was 2.5%, which is two-fold diluted throughout the plate. 50 μL of the bacterial suspension was added to column 1-11. The microtiter plates were sealed with adhesive polyethylene film for sealing microplates (Diversified Biotech) and incubated for 24 h at 37° C. After incubation the OD was measured at 600 nm with the Varioskan (Thermo Fisher Scientific). The minimal concentration which causes reduction of final OD600 of the bacterial culture by 50% (MIC50) and by 90% (MIC90) was calculated after normalization of the obtained OD values to the growth control in column 11. This assay was repeated three times in three independent experiments.

[2] = system: Pseudomonas aeruginosa ATCC 27853; test: as above; assay type: cell-based; conditions: for MIC50 / MIC90: Pseudomonas aeruginosa; for MIC50: ATCC27853, 24 h, read-out: P. aeruginosa MIC50; for MIC50 / P. aeruginosa MIC50: reduction of final OD600 by 50%; for MIC90: ATCC27853
Protocol: as §1, §2, §3
Hereafter, the stock solutions of the compounds were used in three repetitions in a minimal inhibitory concentration (MIC) assay at a 2-fold dilution range with various bacteria from the gram-positive and gram-negative group and a yeast, Candida albicans. The concentrations that show only less than 10% growth after 24 h were considered the MIC90-values, whereas the concentrations that show 50% growth after 24 h when compared to the bacterial growth control were considered the MIC50-values. Escherichia coli and Staphylococcus aureus were used as representatives for a gram-negative bacteria and gram-positive bacteria, respectively. Furthermore, the yeast C. albicans was also tested.
In an Eppendorf tube between 10-20 mg of the test compound was weighed. Hereafter, the required amount of Tween 80 was added, followed by the amount DMSO. After vigorous shaking, the dissolved and transparent dilutions were diluted 10 times with Mueller Hinton Broth (MHB) for the MIC assay. […]

[3] = system: Staphylococcus epidermis ATCC 35984 biofilm; test: MBEC assay (48 h biofilm, CFU log reduction); assay type: cell-based, Staphylococcus epidermidis; conditions: 20 h treatment, 0.125-1 mM tested
Protocol: (§4) For the MBEC assay (method 1.3) the solutions need to be diluted to a final concentration of 2 mM in 0.9% saline solution and then further diluted to 1 mM, 0.5 mM, 0.25 mM and 0.125 mM in saline. Those dilutions were added as treatment to the 96 well plates with the grown biofilm (see method 3) (0.5 mL needed for one strain). The dilution must stay transparent.
(§5) Frozen aliquots of Staphylococcus epidermis ATCC 35984 and Pseudomonas aeruginosa ATCC 27853 were used to inoculate 20 mL of Tryptic Soy Broth (TSB) in a 100 mL Erlenmeyer flask at 37° C. and 150 rpm and incubated overnight (Infors). The OD600 of the overnight culture was measured with a spectrophotometer (Evolution™ 201/220 UV-Visible Spectrophotometer, Thermo Fisher Scientific) and diluted to an ( ) 600 of 0.2, which resembles 10^8 CFU/mL. The cell suspension of OD600=0.2 was seeded into a U-bottom-shaped 96 well plates by pipetting 100 μL per well in column 1-11, column 12 was filled with 100 μL medium as sterility control. The 96 well plates were sealed with adhesive polyethylene film for sealing microplates and incubated for 48 h at 37° C. at static conditions. After the biofilm growth phase, 100 μL of treatment solutions (method 1) were added to the vials resulting in treatment concentrations of 1 mM, 0.5 mM, 0.25 mM and 0.125 mM and with the respective concentration of Tween 80 and DMSO each at 0.63%, 0.32%, 0.16% and 0.08%. The same concentration was applied to four different wells of the same bacterial strain, resulting in four replicates for each concentration and strain. The treatment was incubated for 20 h at 37° C. at static conditions. After the treatment the supernatant was carefully removed and the well with the biofilm washed carefully for one time with 200 μL 0.9% saline solution. 200 μL saline solution was added and the biofilm was resuspended thoroughly. When fully homogenized then 20 μl, was used for the first dilution in 180 μL 0.9% saline solution, which was prepared in a second plate. This dilution was continued until dilution step 10E-5 and 100 μL of the 10E-4 and 10E-5 dilution plated on a TSA plate. The TSA plates were incubated at 37° C. for 24 h. The colonies on the plates were enumerated, the colony forming units per ml, of the dispensed biofilm and averages thereof and the log reduction in comparison with the untreated sample from the same wells plate calculated. Reduction of colony forming units goes hand in hand with the thickness of the biofilm and thus with the number bacteria that are present in the biofilm. Therefore, a significant reduction of colony forming units in the biofilm was defined at the value of log reduction >1 or more. This assay was repeated two times in two independent experiments)

[4] = system: Pseudomonas aeruginosa ATCC 27853 biofilm; test: MBEC assay (48 h biofilm, CFU log reduction); assay type: cell-based; conditions: 20 h treatment, 0.125-1 mM tested
Protocol: as §4, §5

[5] = reduction of final OD600 by 90%, 24 h at 37° C., MHB-II, read-out: P. aeruginosa MIC90
[6] = reduction of final OD600 by 90%, 24 h at 37° C., MHB-II

## Clc1ccc(SSc2ccc(Cl)cc2)cc1 [Bis (4-chlorophenyl) disulfide, Bis(4-chlorophenyl) disulfide]
[1]
  MIC50: 10 µM (≈ 2.87 µg/mL)
  MIC90: 30 µM (≈ 8.62 µg/mL)
[2]; 24 h at 37° C., MHB-II
  MIC50: 20 µM (≈ 5.74 µg/mL)
[2]; [5]
  MIC90: 30 µM (≈ 8.62 µg/mL)
[3]
  S. epidermidis MBEC mM with log reduction ≥1: >1 mM
[4]
  P. aeruginosa MBEC mM with log reduction ≥1: >1 mM

## O=S(=O)(Sc1ccc(Cl)cc1)c1ccc(Cl)cc1 [Bis (4-chlorophenyl) thiosulfonate, Bis(4-chlorophenyl) thiosulfonate]
[1]
  S. epidermidis MIC50: 30 µM
  S. epidermidis MIC90: 60 µM
[2]; 24 h at 37° C., MHB-II
  P. aeruginosa MIC50: 250 µM
[2]; [6]
  P. aeruginosa MIC90: 2000 µM
[3]
  S. epidermidis MBEC mM with log reduction ≥1: >1 mM
[4]
  P. aeruginosa MBEC mM with log reduction ≥1: >1 mM

## Fc1ccc(SSc2ccc(F)cc2)cc1 [Bis (4-fluorophenyl) disulfide, Bis(4-fluorophenyl) disulfide]
[1]
  MIC50: 60 µM (≈ 15.3 µg/mL)
  MIC90: 60 µM (≈ 15.3 µg/mL)
[2]; 24 h at 37° C., MHB-II
  MIC50: 125 µM (≈ 31.8 µg/mL)
  P. aeruginosa MIC50: 130 µM
[2]; Example 2b, FIG. 1, no MIC90 detected in the tested range, read-out: Average MIC90 P. aeruginosa (Pa)
  MIC90: > 4000 µM
[2]; [5]
  MIC90: 250 µM (≈ 63.6 µg/mL)
[3]
  S. epidermidis MBEC mM with log reduction ≥1: >1 mM
[4]
  P. aeruginosa MBEC mM with log reduction ≥1: >1 mM

## [O-][S+](Sc1ccc(F)cc1)c1ccc(F)cc1 (centres unmarked) [Bis (4-fluorophenyl) thiosulfinate, Bis(4-fluorophenyl) thiosulfinate]
[1]
  S. epidermidis MIC50: 125 µM and 130 µM
  S. epidermidis MIC90: 250 µM
[2]; 24 h at 37° C., MHB-II
  P. aeruginosa MIC50: 1000 µM
[2]; [6]
  P. aeruginosa MIC90: 4000 µM
[3]
  S. epidermidis MBEC mM with log reduction ≥1: >1 mM
[4]
  P. aeruginosa MBEC mM with log reduction ≥1: >1 mM

## O=S(=O)(Sc1ccc(F)cc1)c1ccc(F)cc1 [Bis (4-fluorophenyl) thiosulfonate, Bis(4-fluorophenyl) thiosulfonate]
[1]
  S. epidermidis MIC50: 250 µM
  S. epidermidis MIC90: 2000 µM
[2]; 24 h at 37° C., MHB-II
  P. aeruginosa MIC50: 2000 µM
[2]; [6]
  P. aeruginosa MIC90: 2000 µM
[3]
  S. epidermidis MBEC mM with log reduction ≥1: >1 mM
[4]
  P. aeruginosa MBEC mM with log reduction ≥1: >1 mM

## CC(C)SS(=O)(=O)C(C)C [Di-isopropyl thiosulfonate]
[1]
  S. epidermidis MIC50: 2000 µM
  S. epidermidis MIC90: 2000 µM
[2]; 24 h at 37° C., MHB-II
  P. aeruginosa MIC50: 2000 µM
[2]; [6]
  P. aeruginosa MIC90: 2000 µM
[3]
  S. epidermidis MBEC mM with log reduction ≥1: >1 mM
[4]
  P. aeruginosa MBEC mM with log reduction ≥1: >1 mM

## CCCSSCCC [Di-n-propyl disulfide, reference compound]
[1]
  MIC50: > 4000 µM
  MIC90: > 4000 µM
[2]; 24 h at 37° C., MHB-II
  MIC50: > 4000 µM
[2]; [5]
  MIC90: > 4000 µM
[3]
  S. epidermidis MBEC mM with log reduction ≥1: >1 mM
[4]
  P. aeruginosa MBEC mM with log reduction ≥1: >4 mM

## CCCSS(=O)(=O)CCC [Di-n-propyl thiosulfonate, reference compound]
[1]
  S. epidermidis MIC50: 250 µM
  S. epidermidis MIC90: 250 µM
[2]; 24 h at 37° C., MHB-II
  P. aeruginosa MIC50: 250 µM
[2]; [6]
  P. aeruginosa MIC90: 250 µM
[3]
  S. epidermidis MBEC mM with log reduction ≥1: 0.25 mM
[4]
  P. aeruginosa MBEC mM with log reduction ≥1: 1 mM
